Data from patent US11028083B2, “Ethanediamine-heterocycle derivatives as inhibitors of protein arginine methyltransferases” (Board of Regents, The University of Texas System, priority 2018, dated 2021).

Experiments:
[1] = biological target: Full-length human GST-PRMT4 (Homo sapiens (Human), UniProt Q86X55); assay: PRMT4 RapidFire Mass Spectrometry Selectivity Assay (SAH production); format: biochemical; details: Rapid fire enzyme assay; 0.5 μM SAM, 15 nM Histone H3.3; read-out: PRMT-4 IC50
Source text: Full-length human GST-PRMT4 (SignalChem, catalog#P365-380DG) was expressed by baculovirus in Sf9 insect cells.

[2] = biological target: Full-length human PRMT1 (1-361) (Homo sapiens, UniProt Q99873); assay: PRMT1 RapidFire Mass Spectrometry Selectivity Assay (SAH production); format: biochemical; details: Rapid fire enzyme assay; 1 μM SAM, 50 nM histone H4 (1-21); read-out: PRMT-1 IC50
PRMT1 = PRMT1 (Homo sapiens (Human), UniProt Q99873); assay: PRMT1 Enzymatic Assay (LANCE TR-FRET, methylation of histone H4 at Arg3); format: biochemical; details: PRMT-1 Enzymatic Assay; 1 μM SAM, 25 nM biotinylated histone H4 (1-21)
Method: In order to measure PRMT1 enzymatic activity the LANCE TR-FRET assay from PerkinElmer was used to follow the methylation of histone H4 at Arg3 using S-adenosyl-L-methionine (SAM) as the methyl group donor.
Final concentrations of PRMT1, SAM, and histone H4 (1-21) refer to a 10 μL volume.
Detection of methylated histone H4 (H4R3me) was achieved by combining LANCE Ultra Europium-anti-H4R3me antibody (PerkinElmer, Catalog #TRF04-14), LANCE Ultra ULight-anti-streptavidin antibody (PerkinElmer, Catalog #TRF0102), and sinefungin (Sigma, Catalog #S8559) (final concentrations 2 nM, 50 nM, and 100 μM respectively) in 1×LANCE detection buffer (PerkinElmer, Catalog #CR97-100) and adding 10 μL/well of the detection solution to the assay plate. Detection reagents were allowed to react for 1 hour at room temperature. Final concentrations in the detection solution refer to a 20 μL volume.

[3] = biological target: Full-length human PRMT6 (1-375) (Homo sapiens (Human), UniProt Q96LA8); assay: PRMT6 RapidFire Mass Spectrometry Selectivity Assay (SAH production); details: read-out: PRMT-6 IC50; Rapid fire enzyme assay; 3 μM SAM, 250 nM Histone H4 (36-50) K44 MeI
Method: The PRMT6 assay was performed by dispensing 6 uL/well (final concentration of 10 nM) of PRMT6 protein diluted in assay buffer to the plate. Stock solutions of the test compounds were prepared in 100% DMSO (Sigma, Catalog #D2650) and serially diluted 1:3 using 100% DMSO. Compounds were additionally diluted 1:50 in assay buffer, and 6 μL/well were transferred to the assay plate. Plates were allowed to incubate for 15 min at room temperature.
RapidFire buffer A contained H2O and buffer B was 80% acetonitrile/H2O. […] SAH peaks were integrated using RapidFire peak software and IC50 values were calculated using a four-parameter logistic curve fit using Genedata Screener software.

PRMT1 in RKO cells = PRMT1 in RKO cells (Homo sapiens (Human), UniProt Q99873); assay: PRMT1 RKO Cellular Target Engagement Assay (In-Cell Western, asymmetric di-methyl arginine); format: cell-based; details: PRMT-1 Target Engagement, 48 hr compound incubation
Chain of PRMT1 in RKO cells (Q99873 whole entry): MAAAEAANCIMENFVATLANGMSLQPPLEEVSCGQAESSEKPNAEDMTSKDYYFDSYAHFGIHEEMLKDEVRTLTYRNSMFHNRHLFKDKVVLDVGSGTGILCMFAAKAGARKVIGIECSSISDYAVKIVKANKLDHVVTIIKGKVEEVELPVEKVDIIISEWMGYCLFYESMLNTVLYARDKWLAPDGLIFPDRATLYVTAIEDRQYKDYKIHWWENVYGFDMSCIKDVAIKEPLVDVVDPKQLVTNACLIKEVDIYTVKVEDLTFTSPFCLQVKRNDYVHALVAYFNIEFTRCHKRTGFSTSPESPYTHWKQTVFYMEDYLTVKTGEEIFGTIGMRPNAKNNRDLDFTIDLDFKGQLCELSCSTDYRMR
Method: In preparation for the In-Cell Western assay, cells were harvested and resuspended in EMEM media supplemented with 10% fetal bovine serum. […] The culture plate was incubated for 24 hr at 37° C. with 5% CO2 and ambient O2. […] The primary antibody was then removed, and the plate was washed three times with 1×PBST. […] The plate was then incubated in the dark, at room temperature for 1 hour followed by three washes with 1×PBST and one wash with H2O. The IRDye secondary antibody signal (800 channel) and the CellTag signal (700 channel) were measured using a Licor Odyssey Imager, and the 800 channel signal was then normalized to the 700 channel signal. IC50 values were calculated using a four-parameter logistic curve fit using Genedata Screener software.

Chain of Full-length human GST-PRMT4 (Q86X55 whole entry): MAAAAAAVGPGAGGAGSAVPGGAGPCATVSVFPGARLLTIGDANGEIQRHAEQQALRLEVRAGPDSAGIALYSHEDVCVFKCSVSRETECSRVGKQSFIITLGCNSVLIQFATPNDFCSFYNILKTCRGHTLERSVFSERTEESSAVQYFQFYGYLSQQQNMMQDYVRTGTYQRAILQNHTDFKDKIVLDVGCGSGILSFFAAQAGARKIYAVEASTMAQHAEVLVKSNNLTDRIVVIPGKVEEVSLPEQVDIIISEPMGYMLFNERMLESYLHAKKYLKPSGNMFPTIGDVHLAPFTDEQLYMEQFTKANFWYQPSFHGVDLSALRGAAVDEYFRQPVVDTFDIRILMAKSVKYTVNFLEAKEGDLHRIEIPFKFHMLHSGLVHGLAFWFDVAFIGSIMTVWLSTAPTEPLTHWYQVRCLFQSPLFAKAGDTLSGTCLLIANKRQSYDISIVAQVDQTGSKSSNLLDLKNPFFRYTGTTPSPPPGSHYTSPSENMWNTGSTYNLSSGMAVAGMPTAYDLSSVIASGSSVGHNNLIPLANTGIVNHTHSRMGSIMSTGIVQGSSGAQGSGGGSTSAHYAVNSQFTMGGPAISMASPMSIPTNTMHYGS
Chain of PRMT1 (Q99873 whole entry): as the sequence (Q99873 whole entry) above
Chain of Full-length human PRMT6 (1-375) (Q96LA8 whole entry): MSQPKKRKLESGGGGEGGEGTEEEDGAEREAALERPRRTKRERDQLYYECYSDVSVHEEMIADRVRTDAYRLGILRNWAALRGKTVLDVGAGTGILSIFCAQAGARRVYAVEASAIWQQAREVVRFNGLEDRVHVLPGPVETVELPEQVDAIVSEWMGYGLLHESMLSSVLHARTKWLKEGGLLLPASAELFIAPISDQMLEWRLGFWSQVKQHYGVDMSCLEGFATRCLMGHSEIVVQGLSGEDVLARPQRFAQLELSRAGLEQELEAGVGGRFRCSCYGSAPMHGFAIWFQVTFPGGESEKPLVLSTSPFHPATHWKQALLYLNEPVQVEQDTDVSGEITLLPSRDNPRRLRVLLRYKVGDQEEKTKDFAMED

Row | SMILES | IC50 [1] [nM] | IC50 (PRMT1) [nM] | other results
1 | CCOCC1(COCC)CCC(c2c(CN(C)CCNC)nn3c2CCC3)CC1 [Example 2, N^1-((3-(4,4-bis(ethoxymethyl)cyclohexyl)-5,6-dihydro-4H-pyrrolo[1,2-b]pyrazol-2-yl)methyl)-N^1, N^2-dimethylethane-1,2-diamine] | 79 | – | –
2 | CNCCN(C)Cc1nn2c(c1C1CCCCC1)CCC2 [Example 11, N^1-((3-cyclohexyl-5,6-dihydro-4H-pyrrolo[1,2-b]pyrazol-2-yl)methyl)-N^1,N^2-dimethylethane-1,2-diamine] | 654 | 44 | IC50 [2]: 93 nM; IC50 [3]: 99 nM; IC50 (PRMT1 in RKO cells): 14000 nM
3 | CNCCN(C)Cc1nn2c(c1C1CCCCC1)CCCC2 [Example 21, N^1-((3-cyclohexyl-4,5,6,7-tetrahydropyrazolo[1,5-a]pyridin-2-yl)methyl)-N^1,N^2-dimethylethane-1,2-diamine] | 1120 | – | –
4 | CNCCN(C)Cc1nn2c(c1C1CCC3(CCCC3)CC1)CCC2 [Example 49, N^1,N^2-dimethyl-N^1-((3-(spiro[4.5]decan-8-yl)-5,6-dihydro-4H-pyrrolo[1,2-b]pyrazol-2-yl)methyl)ethane-1,2-diamine] | 114 | – | –
5 | CNCCN(C)Cc1nn2c(c1C1CCC(C)(C)CC1)CCC2 [Example 51, N^1-((3-(4,4-dimethylcyclohexyl)-5,6-dihydro-4H-pyrrolo[1,2-b]pyrazol-2-yl)methyl)-N^1,N^2-dimethylethane-1,2-diamine] | 337 | – | –
6 | CCOCC1(COCC)CCC(c2c(CNCCN)nn3c2CC(F)(F)C3)CC1 [Example 92, N^1-((3-(4,4-bis(ethoxymethyl)cyclohexyl)-5,5-difluoro-5,6-dihydro-4H-pyrrolo[1,2-b]pyrazol-2-yl)methyl)ethane-1,2-diamine] | – | 73 | –
